Results published in ChEMBL document CHEMBL5463725, “Data for DCP probe BAY-277” (2023).

Experiments:
[1] = target: 5-hydroxytryptamine receptor 1D (Homo sapiens) (UniProt P28221); conditions: Compound concentration 10.0 uM
[2] = target: 5-hydroxytryptamine receptor 2B (Homo sapiens) (UniProt P41595); assay: Inhibition of Serotonin (5-Hydroxytryptamine) 5-HT2B at 10.0 µM in the Eurofins Panlabs Safety Screen; conditions: Compound concentration 10.0 uM
[3] = target: Delta-type opioid receptor (Homo sapiens) (UniProt P41143); assay: Inhibition of Opiate delta1 (OP1, DOP) at 10.0 µM in the Eurofins Panlabs Safety Screen; conditions: Compound concentration 10.0 uM
Delta-type opioid receptor (Homo sapiens), sequence (P41143 whole entry): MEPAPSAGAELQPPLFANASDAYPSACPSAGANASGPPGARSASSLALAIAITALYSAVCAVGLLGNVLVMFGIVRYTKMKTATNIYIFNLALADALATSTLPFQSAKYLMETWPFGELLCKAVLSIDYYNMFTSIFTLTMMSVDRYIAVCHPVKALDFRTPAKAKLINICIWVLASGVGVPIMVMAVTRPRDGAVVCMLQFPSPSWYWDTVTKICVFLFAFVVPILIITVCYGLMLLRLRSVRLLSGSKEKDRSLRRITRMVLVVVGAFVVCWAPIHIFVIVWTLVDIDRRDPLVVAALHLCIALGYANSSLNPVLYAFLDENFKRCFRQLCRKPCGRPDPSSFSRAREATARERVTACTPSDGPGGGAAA

[4] = target: Tyrosine-protein kinase HCK (Homo sapiens) (UniProt P08631); assay: Inhibition of Hck(h) at 10.0 µM in the Eurofins Kinase panel; conditions: Compound concentration 10.0 uM
Tyrosine-protein kinase HCK (Homo sapiens), sequence (P08631 2-526 limits assumed): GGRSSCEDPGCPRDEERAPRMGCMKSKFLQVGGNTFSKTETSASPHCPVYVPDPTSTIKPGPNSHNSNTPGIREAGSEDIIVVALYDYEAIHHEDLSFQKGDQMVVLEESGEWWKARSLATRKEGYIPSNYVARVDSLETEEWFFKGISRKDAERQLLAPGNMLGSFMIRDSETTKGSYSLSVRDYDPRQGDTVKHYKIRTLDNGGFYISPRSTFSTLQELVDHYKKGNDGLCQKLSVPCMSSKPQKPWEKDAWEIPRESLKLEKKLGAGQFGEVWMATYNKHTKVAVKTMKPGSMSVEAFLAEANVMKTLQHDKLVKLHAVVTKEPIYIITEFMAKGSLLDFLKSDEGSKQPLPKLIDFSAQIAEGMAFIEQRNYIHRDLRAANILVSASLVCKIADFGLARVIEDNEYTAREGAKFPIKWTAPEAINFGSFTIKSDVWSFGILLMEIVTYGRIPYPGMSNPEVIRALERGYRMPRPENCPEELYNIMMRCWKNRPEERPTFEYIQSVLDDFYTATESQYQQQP

[5] = target: Monoamine oxidase B (MAO-B) (Homo sapiens, UniProt P27338); assay: Inhibition of Monoamine Oxidase MAO-B at 10.0 µM in the Eurofins Panlabs Safety Screen; conditions: compound concentration 10 uM
Monoamine oxidase B (MAO-B), sequence (P27338 whole entry): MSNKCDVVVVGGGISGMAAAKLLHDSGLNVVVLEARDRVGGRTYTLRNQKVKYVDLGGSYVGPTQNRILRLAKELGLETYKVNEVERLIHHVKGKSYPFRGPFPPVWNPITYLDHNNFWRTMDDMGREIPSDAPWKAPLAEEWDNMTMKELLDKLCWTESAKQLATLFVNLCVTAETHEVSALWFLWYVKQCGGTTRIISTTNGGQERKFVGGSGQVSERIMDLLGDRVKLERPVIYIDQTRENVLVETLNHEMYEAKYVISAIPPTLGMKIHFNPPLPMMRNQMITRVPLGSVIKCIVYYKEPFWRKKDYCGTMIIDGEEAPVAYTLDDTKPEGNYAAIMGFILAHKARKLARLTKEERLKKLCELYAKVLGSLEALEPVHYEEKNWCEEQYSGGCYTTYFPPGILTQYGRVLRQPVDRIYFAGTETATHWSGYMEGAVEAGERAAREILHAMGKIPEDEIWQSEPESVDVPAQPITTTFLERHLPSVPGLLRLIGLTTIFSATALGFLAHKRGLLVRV

[6] = target: T1, Alpha-2B adrenergic receptor (Homo sapiens) (UniProt P18089); conditions: Compound concentration 10.0 uM
T1 sequence (whole entry): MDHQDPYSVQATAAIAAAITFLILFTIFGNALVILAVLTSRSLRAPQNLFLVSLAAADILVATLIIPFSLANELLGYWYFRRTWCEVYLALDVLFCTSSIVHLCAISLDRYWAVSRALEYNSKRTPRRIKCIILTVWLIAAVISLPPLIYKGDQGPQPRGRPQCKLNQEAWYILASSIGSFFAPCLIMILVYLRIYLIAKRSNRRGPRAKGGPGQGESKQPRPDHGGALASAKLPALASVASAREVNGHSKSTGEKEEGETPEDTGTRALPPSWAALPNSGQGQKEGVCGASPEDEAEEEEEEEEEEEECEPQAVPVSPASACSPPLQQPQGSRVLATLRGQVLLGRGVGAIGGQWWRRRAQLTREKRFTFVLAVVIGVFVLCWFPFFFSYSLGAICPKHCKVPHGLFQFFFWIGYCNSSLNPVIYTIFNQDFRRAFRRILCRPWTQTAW

[7] = target: T2, 5-hydroxytryptamine receptor 1A (Homo sapiens) (UniProt P08908); conditions: Compound concentration 10.0 uM
T2 sequence (whole entry): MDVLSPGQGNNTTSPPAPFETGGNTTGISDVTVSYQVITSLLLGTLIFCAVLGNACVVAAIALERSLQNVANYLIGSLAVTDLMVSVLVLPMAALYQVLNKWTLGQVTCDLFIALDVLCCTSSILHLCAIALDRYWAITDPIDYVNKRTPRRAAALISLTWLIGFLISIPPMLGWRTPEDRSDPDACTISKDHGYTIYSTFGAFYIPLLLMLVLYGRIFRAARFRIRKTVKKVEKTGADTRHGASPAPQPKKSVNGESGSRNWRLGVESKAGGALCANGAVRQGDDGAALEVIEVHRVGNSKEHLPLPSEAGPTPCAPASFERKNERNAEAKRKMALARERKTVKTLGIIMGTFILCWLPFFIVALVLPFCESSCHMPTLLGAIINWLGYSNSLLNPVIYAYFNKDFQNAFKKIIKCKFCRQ

[8] = target: Sodium-dependent noradrenaline transporter (Homo sapiens) (UniProt P23975); conditions: Compound concentration 10.0 uM
Sodium-dependent noradrenaline transporter (Homo sapiens), sequence (P23975 whole entry): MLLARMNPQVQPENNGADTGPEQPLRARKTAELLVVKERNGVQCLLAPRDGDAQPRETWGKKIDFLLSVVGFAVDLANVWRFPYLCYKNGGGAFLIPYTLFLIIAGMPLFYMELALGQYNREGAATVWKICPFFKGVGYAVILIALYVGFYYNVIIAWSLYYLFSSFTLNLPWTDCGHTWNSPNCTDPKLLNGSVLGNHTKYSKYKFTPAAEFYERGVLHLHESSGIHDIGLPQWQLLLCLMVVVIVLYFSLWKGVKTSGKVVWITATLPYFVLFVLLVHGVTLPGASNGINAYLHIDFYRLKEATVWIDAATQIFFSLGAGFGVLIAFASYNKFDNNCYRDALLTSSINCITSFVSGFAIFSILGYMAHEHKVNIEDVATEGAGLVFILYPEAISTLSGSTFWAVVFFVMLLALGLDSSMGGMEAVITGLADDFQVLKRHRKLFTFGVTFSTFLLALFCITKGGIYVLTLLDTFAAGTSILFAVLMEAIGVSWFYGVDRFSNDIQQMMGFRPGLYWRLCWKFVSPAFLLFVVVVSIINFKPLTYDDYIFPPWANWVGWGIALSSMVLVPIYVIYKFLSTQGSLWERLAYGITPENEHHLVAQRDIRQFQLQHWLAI

Histamine H3 receptor = Histamine H3 receptor (Homo sapiens, UniProt Q9Y5N1); assay: Inhibition of Histamine H3 at 10.0 µM in the Eurofins Panlabs Safety Screen; conditions: Compound concentration 10.0 uM
Histamine H3 receptor, sequence (Q9Y5N1 whole entry): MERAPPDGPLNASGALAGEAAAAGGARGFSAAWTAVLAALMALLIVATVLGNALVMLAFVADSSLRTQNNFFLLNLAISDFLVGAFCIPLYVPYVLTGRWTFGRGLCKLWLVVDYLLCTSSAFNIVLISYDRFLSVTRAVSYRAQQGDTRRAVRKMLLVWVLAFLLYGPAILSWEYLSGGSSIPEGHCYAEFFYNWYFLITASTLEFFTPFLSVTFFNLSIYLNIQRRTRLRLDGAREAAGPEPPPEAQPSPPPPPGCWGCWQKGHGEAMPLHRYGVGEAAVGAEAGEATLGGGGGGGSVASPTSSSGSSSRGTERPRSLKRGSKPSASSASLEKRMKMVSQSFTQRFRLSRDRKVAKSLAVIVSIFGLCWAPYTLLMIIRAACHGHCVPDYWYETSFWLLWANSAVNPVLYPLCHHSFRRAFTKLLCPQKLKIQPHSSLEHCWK

[9] = target: 5-hydroxytryptamine receptor 5A (Homo sapiens) (UniProt P47898); conditions: Compound concentration 10.0 uM
5-hydroxytryptamine receptor 5A (Homo sapiens), sequence (P47898 whole entry): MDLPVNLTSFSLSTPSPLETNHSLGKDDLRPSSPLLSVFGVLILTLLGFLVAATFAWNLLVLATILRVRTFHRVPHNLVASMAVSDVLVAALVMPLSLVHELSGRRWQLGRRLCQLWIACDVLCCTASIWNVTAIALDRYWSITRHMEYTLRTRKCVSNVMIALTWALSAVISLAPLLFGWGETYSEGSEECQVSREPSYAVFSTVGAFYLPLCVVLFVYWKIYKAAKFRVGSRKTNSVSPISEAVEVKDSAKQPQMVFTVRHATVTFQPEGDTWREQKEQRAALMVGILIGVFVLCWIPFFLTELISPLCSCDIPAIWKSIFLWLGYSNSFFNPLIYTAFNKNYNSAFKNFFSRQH

[10] = target: T3, Alpha-2C adrenergic receptor (Homo sapiens) (UniProt P18825); conditions: Compound concentration 10.0 uM
T3 sequence (whole entry): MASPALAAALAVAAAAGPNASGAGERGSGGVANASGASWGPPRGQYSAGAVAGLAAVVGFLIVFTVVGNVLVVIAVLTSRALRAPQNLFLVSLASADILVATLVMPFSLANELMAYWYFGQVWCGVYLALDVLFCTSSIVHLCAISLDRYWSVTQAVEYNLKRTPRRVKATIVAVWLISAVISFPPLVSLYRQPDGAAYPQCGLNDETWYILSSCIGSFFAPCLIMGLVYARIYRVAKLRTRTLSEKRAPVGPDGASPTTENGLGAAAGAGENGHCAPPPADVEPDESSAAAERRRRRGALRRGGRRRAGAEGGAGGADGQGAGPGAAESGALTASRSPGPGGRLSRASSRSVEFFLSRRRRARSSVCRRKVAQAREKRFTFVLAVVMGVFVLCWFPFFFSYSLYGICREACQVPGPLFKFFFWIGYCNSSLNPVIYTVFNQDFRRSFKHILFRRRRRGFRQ

[11] = target: D(4) dopamine receptor (Homo sapiens) (UniProt P21917); conditions: Compound concentration 10.0 uM
D(4) dopamine receptor (Homo sapiens), sequence (P21917 whole entry): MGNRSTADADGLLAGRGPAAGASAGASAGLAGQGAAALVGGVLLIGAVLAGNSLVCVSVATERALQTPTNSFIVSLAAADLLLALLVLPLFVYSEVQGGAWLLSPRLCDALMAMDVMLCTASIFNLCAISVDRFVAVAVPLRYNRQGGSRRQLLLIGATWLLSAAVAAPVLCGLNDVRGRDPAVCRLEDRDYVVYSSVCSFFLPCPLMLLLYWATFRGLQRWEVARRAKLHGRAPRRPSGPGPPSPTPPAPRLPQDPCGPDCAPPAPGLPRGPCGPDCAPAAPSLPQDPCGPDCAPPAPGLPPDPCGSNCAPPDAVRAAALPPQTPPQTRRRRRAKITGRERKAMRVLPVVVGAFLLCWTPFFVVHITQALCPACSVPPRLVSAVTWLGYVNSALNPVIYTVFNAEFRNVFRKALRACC

[12] = target: Histamine H1 receptor (Homo sapiens) (UniProt P35367); conditions: Compound concentration 10.0 uM
Histamine H1 receptor (Homo sapiens), sequence (P35367 whole entry): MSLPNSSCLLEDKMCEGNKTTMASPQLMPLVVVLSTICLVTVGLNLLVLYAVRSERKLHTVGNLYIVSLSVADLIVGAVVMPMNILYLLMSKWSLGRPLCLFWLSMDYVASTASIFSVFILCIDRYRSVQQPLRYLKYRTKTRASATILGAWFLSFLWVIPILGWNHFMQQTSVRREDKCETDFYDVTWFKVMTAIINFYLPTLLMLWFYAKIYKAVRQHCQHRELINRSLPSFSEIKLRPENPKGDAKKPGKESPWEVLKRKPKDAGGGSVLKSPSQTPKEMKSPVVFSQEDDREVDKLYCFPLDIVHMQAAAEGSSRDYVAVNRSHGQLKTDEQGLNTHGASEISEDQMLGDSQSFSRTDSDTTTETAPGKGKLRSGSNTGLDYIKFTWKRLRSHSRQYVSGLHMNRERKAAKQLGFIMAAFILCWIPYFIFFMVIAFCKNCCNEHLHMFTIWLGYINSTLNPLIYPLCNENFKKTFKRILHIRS

[13] = target: Sigma intracellular receptor 2 (Homo sapiens, UniProt Q5BJF2); assay: GPCRScan assay: inhibition of Sigma 2; parameters: radioligand conc. used [nm] 5.0, parental cells HEKT
Sigma intracellular receptor 2, sequence (Q5BJF2 whole entry): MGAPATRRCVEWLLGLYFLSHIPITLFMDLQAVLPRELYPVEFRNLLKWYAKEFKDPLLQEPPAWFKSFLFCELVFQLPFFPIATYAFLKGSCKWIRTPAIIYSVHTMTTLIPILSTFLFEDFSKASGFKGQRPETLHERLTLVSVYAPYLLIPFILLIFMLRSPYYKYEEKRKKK

[14] = target: T4, 5-hydroxytryptamine receptor 2C (Homo sapiens) (UniProt P28335); assay: Inhibition of Serotonin (5-Hydroxytryptamine) 5-HT2C at 10.0 µM in the Eurofins Panlabs Safety Screen; conditions: Compound concentration 10.0 uM
T4 sequence (whole entry): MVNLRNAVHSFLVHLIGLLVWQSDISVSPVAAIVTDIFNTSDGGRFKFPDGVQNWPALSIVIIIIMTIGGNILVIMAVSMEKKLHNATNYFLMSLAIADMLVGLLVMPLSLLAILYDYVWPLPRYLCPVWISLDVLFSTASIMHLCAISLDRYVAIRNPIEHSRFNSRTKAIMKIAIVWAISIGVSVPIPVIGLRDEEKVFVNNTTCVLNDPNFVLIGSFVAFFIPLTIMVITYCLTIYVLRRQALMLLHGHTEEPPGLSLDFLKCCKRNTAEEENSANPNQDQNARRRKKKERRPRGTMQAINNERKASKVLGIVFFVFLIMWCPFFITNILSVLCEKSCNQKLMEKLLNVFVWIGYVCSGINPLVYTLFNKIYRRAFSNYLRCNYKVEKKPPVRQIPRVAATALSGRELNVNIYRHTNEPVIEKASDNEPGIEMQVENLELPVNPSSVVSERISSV

[15] = target: GABA-A receptor; anion channel (Rattus norvegicus) (UniProt O09028+P15431+P18506+P18508+P19969+P20236+P23574+P23576+P28471+P28473+P30191+P62813+P63079+P63138+Q91ZM7+Q9ES14); assay: Inhibition of GABAA, Flunitrazepam, Central at 10.0 µM in the Eurofins Panlabs Safety Screen; type: protein-complex assay; conditions: Compound concentration 10.0 uM
[16] = target: Tyrosine-protein kinase Lck (Homo sapiens) (UniProt P06239); assay: Inhibition of Lck(h) at 10.0 µM in the Eurofins Kinase panel; conditions: Compound concentration 10.0 uM

5-hydroxytryptamine receptor 1D (Homo sapiens), sequence (P28221 whole entry): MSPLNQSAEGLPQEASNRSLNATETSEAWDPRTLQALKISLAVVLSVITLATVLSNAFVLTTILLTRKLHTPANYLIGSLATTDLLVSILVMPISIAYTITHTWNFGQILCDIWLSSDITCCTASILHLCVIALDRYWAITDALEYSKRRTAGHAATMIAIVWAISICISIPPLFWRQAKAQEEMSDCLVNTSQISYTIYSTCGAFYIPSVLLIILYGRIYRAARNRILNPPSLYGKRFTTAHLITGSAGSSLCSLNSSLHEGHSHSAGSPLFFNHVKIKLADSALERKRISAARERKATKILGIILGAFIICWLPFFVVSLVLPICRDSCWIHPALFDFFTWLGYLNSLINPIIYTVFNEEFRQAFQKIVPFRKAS
5-hydroxytryptamine receptor 2B (Homo sapiens), sequence (P41595 whole entry): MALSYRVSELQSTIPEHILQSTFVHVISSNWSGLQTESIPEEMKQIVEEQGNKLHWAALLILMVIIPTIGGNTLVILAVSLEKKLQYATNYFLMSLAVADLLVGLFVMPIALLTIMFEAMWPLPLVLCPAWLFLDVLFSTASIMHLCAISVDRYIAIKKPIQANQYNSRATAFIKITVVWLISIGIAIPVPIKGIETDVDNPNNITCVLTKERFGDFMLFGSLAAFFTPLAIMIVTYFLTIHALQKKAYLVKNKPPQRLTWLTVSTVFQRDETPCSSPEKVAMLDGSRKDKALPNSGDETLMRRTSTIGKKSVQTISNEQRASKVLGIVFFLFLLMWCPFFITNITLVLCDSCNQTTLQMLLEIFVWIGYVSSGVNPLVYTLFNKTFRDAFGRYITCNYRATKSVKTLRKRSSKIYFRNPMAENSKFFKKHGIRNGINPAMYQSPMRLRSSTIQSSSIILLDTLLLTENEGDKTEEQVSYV

| SMILES | inhibition [1] [%] | inhibition [2] [%] | inhibition [3] [%] | inhibition [4] [%] | inhibition at 10 µM [5] [%] | inhibition [6] [%] | inhibition [7] [%] | inhibition [8] [%] | inhibition (Histamine H3 receptor) [%] | inhibition [9] [%] | inhibition [10] [%] | inhibition [11] [%] | inhibition [12] [%] | Ki ([13]; read-out: Ki) [nM] | Ki ([13]; read-out: pKi (converted)) [nM] | inhibition [14] [%] | inhibition [15] [%] | inhibition [16] [%] |
| --- | --- | --- | --- | --- | --- | --- | --- | --- | --- | --- | --- | --- | --- | --- | --- | --- | --- | --- |
| O=C1NCCCC1N1Cc2cc(C3CCN(C(=O)CCCCCN4CCC(c5ccc(Oc6nn7cnnc7c7c6CCCC7)cc5)CC4)CC3)ccc2C1=O (stereo unspecified) | 37.4 | 10 | 7 | 17.9 | 30 | 8.66 | 35.3 | 4.02 | 85 | 14 | 27.5 | 19.1 | 14.2 | 1140 | 977 | 2 | 15 | 11.9 |
| O=C1CCC(N2Cc3cc(C4CCN(C(=O)CCCCCN5CCC(c6ccc(Oc7nn8cnnc8c8c7CCCC8)cc6)CC5)CC4)ccc3C2=O)C(=O)N1 (stereo unspecified) | 48.5 | 41 | 0 | 12.8 | 34 | 8.76 | 7.96 | 11.7 | 81 | 10.1 | 47.9 | 14.3 | 10.3 | 867 | 832 | 14 | 10 | 14.3 |
